From article PMC4558462, “A new small molecule inhibitor of soluble guanylate cyclase” (Bioorganic & Medicinal Chemistry, 2015) come the findings set out here.

The target of the assay is T1, full-length enzyme (sGC) (Homo sapiens, UniProt Q02108+Q02153).
T1 construct: Full-length human recombinant guanylyl cyclase (soluble); purchased Enzo lifesciences ALX-201-177
T1 sequence (Q02108 1-690): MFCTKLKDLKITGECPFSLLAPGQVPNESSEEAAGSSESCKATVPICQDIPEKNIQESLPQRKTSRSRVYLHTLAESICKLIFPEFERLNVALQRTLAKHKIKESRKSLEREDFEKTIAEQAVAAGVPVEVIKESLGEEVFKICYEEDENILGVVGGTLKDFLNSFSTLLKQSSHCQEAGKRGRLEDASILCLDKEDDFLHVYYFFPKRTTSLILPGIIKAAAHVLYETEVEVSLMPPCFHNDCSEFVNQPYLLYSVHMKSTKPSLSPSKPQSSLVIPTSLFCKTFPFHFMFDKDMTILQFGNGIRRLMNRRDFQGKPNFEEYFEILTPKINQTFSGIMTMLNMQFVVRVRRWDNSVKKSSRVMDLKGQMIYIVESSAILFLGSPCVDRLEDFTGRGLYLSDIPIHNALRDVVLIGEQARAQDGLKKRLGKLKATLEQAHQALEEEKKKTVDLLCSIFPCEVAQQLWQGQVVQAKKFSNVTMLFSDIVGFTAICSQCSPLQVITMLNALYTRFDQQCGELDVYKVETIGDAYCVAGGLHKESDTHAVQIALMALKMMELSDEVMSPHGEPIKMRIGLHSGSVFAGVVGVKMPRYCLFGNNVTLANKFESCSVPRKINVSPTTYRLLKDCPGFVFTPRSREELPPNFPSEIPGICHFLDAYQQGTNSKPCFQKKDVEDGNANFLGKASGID
T1 sequence (Q02153 1-619): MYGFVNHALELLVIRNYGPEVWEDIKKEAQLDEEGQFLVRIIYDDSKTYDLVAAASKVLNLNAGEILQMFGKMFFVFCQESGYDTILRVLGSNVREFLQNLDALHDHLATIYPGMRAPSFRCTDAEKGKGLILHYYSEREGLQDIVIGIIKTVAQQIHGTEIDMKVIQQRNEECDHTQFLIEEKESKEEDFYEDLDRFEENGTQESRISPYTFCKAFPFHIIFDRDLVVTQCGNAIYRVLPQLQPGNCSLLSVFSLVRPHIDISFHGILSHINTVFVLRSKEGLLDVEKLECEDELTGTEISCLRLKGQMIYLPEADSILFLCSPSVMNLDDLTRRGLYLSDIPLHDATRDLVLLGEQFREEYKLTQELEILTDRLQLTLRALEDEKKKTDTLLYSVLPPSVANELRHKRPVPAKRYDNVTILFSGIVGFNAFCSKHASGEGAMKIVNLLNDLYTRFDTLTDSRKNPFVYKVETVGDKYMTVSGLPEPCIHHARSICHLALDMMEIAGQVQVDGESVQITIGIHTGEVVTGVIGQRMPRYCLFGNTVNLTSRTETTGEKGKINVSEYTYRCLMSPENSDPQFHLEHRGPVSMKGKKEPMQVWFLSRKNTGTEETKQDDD
Kind of assay: SPR binding to full-length sGC. How it is done:
Full-length human recombinant guanylyl cyclase (soluble) and bovine lung guanylyl cyclase (soluble) were obtained from Enzo lifesciences (catalogue numbers ALX-201-177 and ALX-202-039-C005). Biacore consumables were purchased from GE Healthcare (UK), including buffer stock solutions. All other reagents used were obtained from Sigma. Starting materials were either commercially available or synthesized according to methods reported in the literature. ^1H and ^13C NMR spectra were recorded on a Bruker AMX-300 or a Bruker AMX-500 spectrometer. Chemical shifts are reported as ppm relative to TMS internal standard. Mass spectra were recorded on a Fisons VG70-SE spectrometer (EI, FAB) or an Agilent 6100 Series LC-mass spectrometer using C-18 or C-4 columns. Microwave reactions were carried out using a CEM Discover microwave.
Surface plasmon resonance (SPR) experiments were performed with a Biacore T200 instrument at 25 °C. Data processing and analysis were performed using BIAevaluation software and Scrubber2. All sensorgrams were double referenced by subtracting the response in a reference flowcell and a blank sample. Materials and methods used were the same as previously published.[24]
A general note: Surface plasmon resonance follows binding to a sensor surface in real time, without labels.

Turning to `O=[N+]([O-])c1ccc2nc(Nc3ccc(O)cc3)c(Nc3ccc(O)cc3)nc2c1` [Compound 10, 4,4′-((6-Nitroquinoxaline-2,3-diyl)bis(azanediyl))diphenol], the Kd (in general, the concentration at which binding is half-saturated) was 19.4 ± 2.1 µM.
